Source: paper PMC7187334 (Clinical Pharmacology in Drug Development, 2019)

Target: T1, breast cancer resistance protein (BCRP) (Homo sapiens, UniProt Q9UNQ0)
T1 sequence (Q9UNQ0 1-655): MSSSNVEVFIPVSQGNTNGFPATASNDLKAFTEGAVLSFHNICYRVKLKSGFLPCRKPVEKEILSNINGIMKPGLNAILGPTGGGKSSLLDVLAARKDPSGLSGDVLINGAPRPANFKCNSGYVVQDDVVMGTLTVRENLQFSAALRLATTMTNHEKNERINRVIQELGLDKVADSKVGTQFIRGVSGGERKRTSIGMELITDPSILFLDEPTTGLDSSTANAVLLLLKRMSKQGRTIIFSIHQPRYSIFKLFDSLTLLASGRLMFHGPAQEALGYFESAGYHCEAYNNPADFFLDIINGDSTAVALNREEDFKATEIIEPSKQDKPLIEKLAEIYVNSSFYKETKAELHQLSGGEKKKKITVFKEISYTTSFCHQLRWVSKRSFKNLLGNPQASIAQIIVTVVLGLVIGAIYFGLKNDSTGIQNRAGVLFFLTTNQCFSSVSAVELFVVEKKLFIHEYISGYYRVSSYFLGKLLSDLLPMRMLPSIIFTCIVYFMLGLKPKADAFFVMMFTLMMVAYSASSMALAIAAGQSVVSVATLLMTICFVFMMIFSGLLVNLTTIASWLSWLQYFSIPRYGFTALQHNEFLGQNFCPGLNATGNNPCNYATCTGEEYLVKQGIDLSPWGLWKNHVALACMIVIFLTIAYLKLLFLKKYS
Assay: BCRP transporter inhibition in vitro
Assay type: in vitro ADME
Settings: unpublished data

For `Cc1cc(-c2ccc(C(=O)[C@@H]3CCCC[C@H]3C(=O)Nc3cnn4c3C(=O)NCC4)cc2)n[nH]1` [AZD5718], the IC50 was 20 µM.
